From patent US10092541B2, “Methods for the treatment of diseases ameliorated by PDE4 inhibition using dosage titration of apremilast” (CELGENE CORPORATION, priority 2014, dated 2018)

Test system: peripheral whole blood
Test: Differential gene expression analyses (microarray) in atopic dermatitis patients
Type: in vivo, human
Method: As an exploratory end point to potentially identify immune pathways affected by apremilast, peripheral whole blood was obtained for differential gene expression analyses at baseline and after 3 (cohort 1) and 6 (cohort 2) months of treatment to determine apremilast's potential mechanism of action in patients with atopic dermatitis. RNA isolation and microarray analyses were performed in the Oregon Health and Science University Gene Microarray Shared Resource. Total RNA was isolated from PAXGene tubes using the PAXGene Blood RNA Isolation kit (QIAGEN Inc). RNA quantity was measured by spectrophotometric analysis; RNA quality was evaluated by size analysis on the Bioanalyzer 2100 (Agilent Technologies Inc). All samples passed RNA quality assessment review.
RNA samples were labeled using the OvationWTAPico Amplification and Labeling System (NuGEN Technologies Inc). Fifty nanograms of each sample were amplified with the Ovation WTA Pico kit, converted to sense complementary DNA (cDNA) with the WT-Ovation Exon Module, version 1, kit, and labeled with the Encore Biotin Module kit. Hybridization and array processing were performed as described in the NuGEN Encore Biotin Module User Guide http://www.nugeninc.com/tasks/sites/nugen/assets/File/user_guides/userguide_encore_biotin.pdf). Two micrograms of each labeled cDNA target werehybridized with the GeneChip Human Gene 1.0 ST array (Affymetrix) and scanned on the Affymetrix GeneChip 3000 Scanner. The array image was processed with Affymetrix Command Console (version 3.1.1). Data were normalized using the robust multichip average method.
Differential expression analyses were performed on 16 paired samples. All putatively differentially expressed genes were based on false discovery rate-adjusted P values<0.05. Based on the putative differentially expressed gene list, both enriched pathways and functional gene ontologic characteristics were identified (P<0.05 for hypergeometric test) in the GoStats package within the Bioconductor statistical programming environment (http://www.bioconductor.org).

[1] = cohort 1, 20 mg twice a day, baseline vs 3 months

CCOc1cc([C@@H](CS(C)(=O)=O)N2C(=O)c3cccc(NC(C)=O)c3C2=O)ccc1OC [apremilast, (+)-2-[1-(3-ethoxy-4-methoxyphenyl)-2-methylsulfonylethyl]-4-acetylaminoisoindoline-1,3-dione]
significant differential expression: BAD (bcl-2 antagonist of cell death) phosphorylation pathway gene expression [1] | IL-12 signaling (gene ontologic analysis) [1] | cAMP response element binding (CREB) pathway gene expression [1] | chemokine-mediated signaling (gene ontologic analysis) [1] | cytoskeleton remodeling (gene ontologic analysis) [1] | regulation of immune complex clearing by monocytes and macrophages (gene ontologic analysis) [1] | CCR3 signaling in eosinophils gene expression (cohort 2, 30 mg twice a day, baseline vs 6 months)
